Measurements as given in ChEMBL document CHEMBL1134211, “8-Carboxamidocyclazocine analogues: redefining the structure-activity relationships of 2,6-methano-3-benzazocines” (Bioorg Med Chem Lett, 2001).

Legend:
[1] = Displacement of [3H]naltrindole from Opioid receptor delta 1 of guinea pig brain membranes
[2] = biological target: Kappa-type opioid receptor (Cavia porcellus, UniProt P41144); assay: Displacement of [3H]U-69593 from Opioid receptor kappa 1 of guinea pig brain membranes
Mu-type opioid receptor = Mu-type opioid receptor (Cavia porcellus, UniProt P97266); assay: Displacement of [3H]DAMGO from Opioid receptor mu 1 of guinea pig brain membranes
Chain of Mu-type opioid receptor (P97266 whole entry): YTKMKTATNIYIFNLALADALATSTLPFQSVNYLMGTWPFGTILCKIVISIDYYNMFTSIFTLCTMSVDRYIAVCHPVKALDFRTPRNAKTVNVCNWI

Chain of Kappa-type opioid receptor (P41144 whole entry): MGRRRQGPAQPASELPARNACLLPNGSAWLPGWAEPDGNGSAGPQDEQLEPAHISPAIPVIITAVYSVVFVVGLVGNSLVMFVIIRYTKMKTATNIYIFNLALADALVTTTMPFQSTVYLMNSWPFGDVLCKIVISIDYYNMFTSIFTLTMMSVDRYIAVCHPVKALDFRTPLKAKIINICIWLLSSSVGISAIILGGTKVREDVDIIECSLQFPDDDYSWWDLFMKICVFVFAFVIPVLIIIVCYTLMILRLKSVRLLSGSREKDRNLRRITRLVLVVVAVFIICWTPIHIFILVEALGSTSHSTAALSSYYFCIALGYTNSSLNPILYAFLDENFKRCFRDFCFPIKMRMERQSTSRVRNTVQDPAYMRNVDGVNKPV

Row | SMILES | Ki [1] | Ki [2] | Ki (Mu-type opioid receptor)
1 | C[C@@H]1[C@@H]2Cc3ccc(O)cc3[C@@]1(C)CN2CC1CC1 | 1100 nM | – | –
2 | C[C@H]1C2Cc3ccc(C(=O)N(C)C)cc3[C@@]1(C)CCN2CC1CC1 (mixture of isomers) | – | 2500 nM | 3000 nM
3 | CC[C@@]12CCN(CC3CC3)C(C(=O)c3ccc(C(N)=O)cc31)[C@@H]2C (mixture of isomers) | – | 0.7 nM | 1.2 nM
4 | C[C@H]1[C@H]2Cc3ccc(O)cc3[C@@]1(C)CCN2CC1CC1 (racemic) | 1.1 nM | – | –
5 | C[C@H]1C2Cc3ccc(C#N)cc3[C@@]1(C)CCN2CC1CC1 (mixture of isomers) | – | – | 540 nM
6 | C[C@H]1C2Cc3ccc(C(=O)O)cc3[C@@]1(C)CCN2CC1CC1 (mixture of isomers) | – | 31 nM | 58 nM
7 | CNC(=O)c1ccc2c(c1)[C@@]1(C)CCN(CC3CC3)C(C2)[C@@H]1C (mixture of isomers) | – | 2.6 nM | 24 nM
8 | COC(=O)c1ccc2c(c1)[C@@]1(C)CCN(CC3CC3)C(C2)[C@@H]1C (mixture of isomers) | – | – | 45 nM
9 | C[C@H]1C2Cc3ccc(C(=O)Nc4ccccc4)cc3[C@@]1(C)CCN2CC1CC1 (mixture of isomers) | – | 460 nM | 740 nM
